Source: patent publication EP0467660A2, “Use of d-limonenes as testosterone-5-alpha-reductase inhibitor and as hair grower” (Miyauchi, Yutaka, priority 1990, dated 1992)
pIC50: −log10 of the molar value.

Biological target: testosterone 5α-reductase
Experiment: Testosterone 5α-reductase enzymatic activity inhibitory ratio (crude rat prostate enzyme, [4-14C]-testosterone to DHT conversion, TLC)
Type: biochemical, Wristar male rat
Settings: 37°C, two hours; for inhibitory effect on the testosterone 5α-reductase activity: result in words, Figs. 3-5
Protocol: A Wristar male rat weighing 250-300 g was sacrificed by bleeding, and its prostata was excised. The prostata was cut into fragments under ice-cooling. A 0.1 M HEPES buffer solution (pH: 7.4) containing 0.25 M sucrose (the buffer solution is hereinafter referred to as buffer solution A) was added to the fragments in the amount three times the wet weight of the fragments. Using a Potter-type homogenizer made of Teflon, the mixture was homogenized. The homogenate was filtered using a stainless mesh of a 200 µ size, and then the filtrate was centrifuged at 3000 rpm (900 xg) for ten minutes. The precipitate was suspended in 2.5 parts of buffer solution A, followed by centrifuging at 3000 rpm for five minutes. The residue recovered was suspended in buffer solution A weighing 0.8 times the wet weight of the fragments to produce a crude enzyme solution. The crude enzyme solution was stored at -70°C.
The test sample (less than 10 µl) previously prepared was added to [4-¹⁴C]-testosterone (1.5 nmol, 2.85 kBq), NADPH (0.5 µmol), and the enzyme solution (30 µl) cited above. To this was added the buffer solution A to the extent that the total volume became 100 µl, to prepare a reaction liquid. An enzymatic reaction was performed using the reaction liquid at 37°C for two hours. The enzymatic reaction was initiated by removing the reaction liquid from an ice-water-cooled bath to a 37°C warm bath. The enzymatic reaction was terminated by cooling the reaction liquid in ice-water. […]
A radiation activity of the developed material on the TLC plate cited above was measured by means of an AMBIS image analyzer.
Two spots shown in a chromatogram were subjected to readings of the radiation activities identified by their positions corresponding to testosterone (T) and dihydrotestosterone (DHT) respectively. […] Defining the conversion rate in the presence of the negative control as 100, a percentage of the conversion rate in the presence of the sample was calculated to determine the degree of the enzymatic activity inhibitory ratio of the sample. […]

Row | pIC50 (Fig. 1, 120 min, read-out: amount exhibiting a inhibitory ratio of 50%) | inhibitory effect on the testosterone 5α-reductase activity | SMILES
1 | 3.30 | – | CC1(C)[C@@H](O)CC[C@]2(C)[C@H]3C(=O)C=C4[C@@H]5C[C@@](C)(C(=O)O)CC[C@]5(C)CC[C@@]4(C)[C@]3(C)CC[C@@H]12 [sodium β-glycyrrhetinic acid]
2 | – | no inhibitory effect | C=C[C@H]1[C@H](O[C@@H]2O[C@H](CO)[C@@H](O)[C@H](O)[C@H]2O)OC=C2C(=O)OCC[C@]21O [swertiamarin]
3 | – | considerable high inhibitory effect | C=C(C)[C@H]1CC=C(C)CC1 [d-limonene]
